ChEMBL document CHEMBL4130470, “Lipid lowering agents of natural origin: An account of some promising chemotypes” (2017)

Tests used:
Rattus norvegicus [1] = assay: Reduction in LDL-C level in rat dosed for 7 days; assay type: functional; parameters: scale not given: the % may be the effect or the level left
Rattus norvegicus [2] = assay: Increase in HDL-C level in rat dosed for 7 days; assay type: functional
Hamster [3] = assay: Antidyslipidemic activity in HFD-fed dyslipidemic hamster assessed as reduction in serum glycerol at 50 mg/kg; assay type: functional, Cricetinae; parameters: scale not given: the % may be the effect or the level left
Hamster [4] = assay: Antidyslipidemic activity in HFD-fed dyslipidemic hamster assessed as reduction in serum triglyceride level at 50 mg/kg; assay type: functional, Cricetinae; parameters: scale not given: the % may be the effect or the level left
Hamster [5] = assay: Antidyslipidemic activity in HFD-fed dyslipidemic hamster assessed as reduction in serum total cholesterol at 50 mg/kg; assay type: functional, Cricetinae; parameters: scale not given: the % may be the effect or the level left
Hamster [6] = assay: Antidyslipidemic activity in HFD-fed dyslipidemic hamster assessed as HDLC/total cholesterol at 50 mg/kg; assay type: functional, Cricetinae
Homo sapiens [7] = assay: Reduction in LDL-C level in hypercholesterolemic patient dosed for 3 months; assay type: functional; parameters: scale not given: the % may be the effect or the level left
Hamster [8] = assay: Increase in hepatic LDLR protein hyperlipidemic hamster relative to untreated control; assay type: functional, Cricetinae
Homo sapiens [9] = assay: Reduction in triglyceride level in hypercholesterolemic patient dosed for 3 months; assay type: functional; parameters: scale not given: the % may be the effect or the level left
Hamster [10] = assay: Reduction in serum LDL-C level hyperlipidemic hamster relative to untreated control; assay type: functional, Cricetinae; parameters: scale not given: the % may be the effect or the level left
Homo sapiens [11] = assay: Reduction in total cholesterol level in hypercholesterolemic patient dosed for 3 months; assay type: functional; parameters: scale not given: the % may be the effect or the level left
Hamster [12] = assay: Increase in hepatic LDLR mRNA hyperlipidemic hamster relative to untreated control; assay type: functional, Cricetinae
Hamster [13] = assay: Reduction in serum total cholesterol level hyperlipidemic hamster relative to untreated control; assay type: functional, Cricetinae; parameters: scale not given: the % may be the effect or the level left
Homo sapiens [14] = species: Homo sapiens; assay: Increase in HDL-C in human at 500 mg/day; assay type: functional
Homo sapiens [15] = species: Homo sapiens; assay: Reduction in total cholesterol in human at 500 mg/day; assay type: functional; parameters: scale not given: the % may be the effect or the level left
Homo sapiens [16] = species: Homo sapiens; assay: Reduction in serum lipid peroxides in human at 500 mg/day; assay type: functional; parameters: scale not given: the % may be the effect or the level left
Homo sapiens [17] = species: Homo sapiens; assay: Reduction in total cholesterol level in patient with moderate hypercholesterolemia at 20 to 80 mg/day; assay type: functional; parameters: scale not given: the % may be the effect or the level left
Homo sapiens [18] = species: Homo sapiens; assay: Reduction in LDL-C level in patient with moderate hypercholesterolemia at 20 to 80 mg/day; assay type: functional; parameters: scale not given: the % may be the effect or the level left
Homo sapiens [19] = species: Homo sapiens; assay: Increase in HDL-C level in patient with moderate hypercholesterolemia at 20 to 80 mg/day; assay type: functional
Homo sapiens [20] = species: Homo sapiens; assay: Reduction in triglyceride level in patient with moderate hypercholesterolemia at 20 to 80 mg/day; assay type: functional; parameters: scale not given: the % may be the effect or the level left
Sus scrofa [21] = species: Sus scrofa; assay: Reduction in total cholesterol in swine with metabolic syndrome and myocardial ischemia; assay type: functional; parameters: scale not given: the % may be the effect or the level left
Sus scrofa [22] = species: Sus scrofa; assay: Reduction in LDL in swine with metabolic syndrome and myocardial ischemia; assay type: functional; parameters: scale not given: the % may be the effect or the level left
Homo sapiens [23] = species: Homo sapiens; assay: Increase in HDL-C level in patient with heterozygous familial hypercholesterolaemia at 40 mg/day; assay type: functional
Homo sapiens [24] = species: Homo sapiens; assay: Reduction in triglyceride level in patient with heterozygous familial hypercholesterolaemia at 40 mg/day; assay type: functional; parameters: scale not given: the % may be the effect or the level left
Homo sapiens [25] = species: Homo sapiens; assay: Reduction in LDL-C level in patient with heterozygous familial hypercholesterolaemia at 40 mg/day; assay type: functional; parameters: scale not given: the % may be the effect or the level left
Rattus norvegicus [26] = assay: Hypercholesterolemic activity in male rat assessed as reduction in cholesterol level at 80 mg/kg/day for 7 days; assay type: functional; parameters: scale not given: the % may be the effect or the level left
Rattus norvegicus [27] = assay: Hypercholesterolemic activity in rat assessed as reduction in cholesterol level at 80 mg/kg/day for 8 days; assay type: functional; parameters: scale not given: the % may be the effect or the level left
Rattus norvegicus [28] = assay: Hypercholesterolemic activity in rat assessed as reduction in triglyceride level at 4 to 25 mg/kg/day; assay type: functional; parameters: scale not given: the % may be the effect or the level left
Rattus norvegicus [29] = assay: Hypercholesterolemic activity in rat assessed as reduction in plasma cholesterol level at 4 to 25 mg/kg/day; assay type: functional; parameters: scale not given: the % may be the effect or the level left
Rattus norvegicus [30] = assay: Hypercholesterolemic activity in male rat assessed as reduction in triglyceride level at 80 mg/kg/day for 7 days; assay type: functional; parameters: scale not given: the % may be the effect or the level left

C/C=C/c1cc(OC)c(OC)c(OC)c1
Activity (Rattus norvegicus [1]): 47% | Activity (Rattus norvegicus [2]): 56%

CC(C)=CCC/C(C)=C/CC/C(C)=C/CC/C(C)=C\CC/C(C)=C\CC/C(C)=C\CC/C(C)=C\CC/C(C)=C\CC/C(C)=C\CC/C(C)=C\CC/C(C)=C\CC/C(C)=C\CO
Activity (Hamster [3]): 12% | Activity (Hamster [4]): 42% | Activity (Hamster [5]): 25% | Activity (Hamster [6]): 26%

COc1ccc2cc3[n+](cc2c1OC)CCc1cc2c(cc1-3)OCO2 [BERBERINE]
Activity (Homo sapiens [7]): 25% | fold change (FC) (Hamster [8]): 2.6 | Activity (Homo sapiens [9]): 35% | Activity (Hamster [10]): 42% | Activity (Homo sapiens [11]): 29% | fold change (FC) (Hamster [12]): 3.5 | Activity (Hamster [13]): 40%

COc1cc(/C=C/C(=O)CC(=O)/C=C/c2ccc(O)c(OC)c2)ccc1O [CURCUMIN]
Activity (Homo sapiens [14]): 29% | Activity (Homo sapiens [15]): 12% | Activity (Homo sapiens [16]): 33%

CC[C@H](C)C(=O)O[C@H]1C[C@@H](C)C=C2C=C[C@H](C)[C@H](CC[C@@H]3C[C@@H](O)CC(=O)O3)[C@H]21 [LOVASTATIN]
Activity (Homo sapiens [17]): 17 - 29% | Activity (Homo sapiens [18]): 24 - 40% | Activity (Homo sapiens [19]): 6.6 - 9.5% | Activity (Homo sapiens [20]): 10 - 19%

Oc1ccc(/C=C/c2cc(O)cc(O)c2)cc1 [RESVERATROL]
Activity (Sus scrofa [21]): 33% | Activity (Sus scrofa [22]): 30%

CCC(C)(C)C(=O)O[C@H]1C[C@@H](C)C=C2C=C[C@H](C)[C@H](CC[C@@H]3C[C@@H](O)CC(=O)O3)[C@H]21 [SIMVASTATIN]
Activity (Homo sapiens [23]): 10 - 13% | Activity (Homo sapiens [24]): 21 - 31% | Activity (Homo sapiens [25]): 43 - 45%

C/C=C/c1cc(OC)c(OC)cc1OC [TRANS-ASARONE]
Activity (Rattus norvegicus [26]): 57% | Activity (Rattus norvegicus [27]): 38% | Activity (Rattus norvegicus [28]): 40 - 60% | Activity (Rattus norvegicus [29]): 40 - 60% | Activity (Rattus norvegicus [30]): 42%
